Patent US20060160785A1, “Ezetimibe polymorphs” (priority 2004, published 2006)
In brackets after ≈: the same amount, converted by molar mass. Entries after “also recorded” stand apart in the source; their conditions may differ. Values belong to the compound of their own block, whether it stands above or below them.

Experiments:
[1] = Transformation of ezetimibe crystal forms by heating (XRD); assay type: physicochemical
Description: In the following examples, the forms of ezetimibe were identified using Scintag X-ray powder diffractometer model X'TRA, Cu-tube solid state detector. The sample holder was a round standard aluminum sample holder with rough zero background quartz plate with a cavity of 25 (diameter) X 0.5 mm (depth). The scanning parameters were range: 2-40 degrees two-theta; scan mode: continuous scan; step size: 0.05 deg.; and a rate of 3 deg/min.
After two hours, each sample was removed and analyzed by XRD.

[2] = cited from earlier work
[3] = Solubility of ezetimibe; assay type: physicochemical; conditions: water
[4] = reported; cited from earlier work
[5] = Transformation under different relative humidities (XRD and KF); assay type: physicochemical; conditions: for Crystal form / Water content by KF: 25-30° C.
Protocol: 500 mg samples were placed in an open glass bottle at a temperature of 25° C. to 30° C., under various humidity for a sufficient time (1-14 days) for each sample to equilibrate. At the end of each time period, each sample was removed and analyzed by XRD and by KF. The results are summarized below in Tables 6-7 for starting Forms A and B, respectively.

[6] = Effect of pressing on crystalline stability; assay type: physicochemical; conditions: pressed 1 minute, approximately 1300 psi
Protocol: Crystalline stability of Form A and Form B was tested by pressing each of the forms for about 1 minute under a pressure of about 1300 psi. […] Form A is also stable under pressing.
Forms A and B were studied under pressure. The forms were pressed for 1 minute under a pressure of approximately 1300 psi.

[7] = Micronization (milling) crystal form stability; assay type: physicochemical
Protocol: Micronization of Form B is preferably carried out by milling Form B using a feed air rate of about 6 bar and a grinding air pressure of about 5 bar, for about 20 to about 30 minutes.
Form B was milled by a 50 mm micronizer for about 20 to 30 minutes. The feed air rate was 6.0 bar and the grinding air was 5.0 bar. The sample was analyzed before and after micronization by XRD. During micronization 65% (estimated by XRD and by KF) of Form B converted to Form A. The estimated water content is 1-2% by weight. Micronization of Form A on the other hand results in Form A.

[8] = Particle size distribution by Malvern laser diffraction; assay type: physicochemical; conditions: prime particles with sonication
Protocol: A Malvern Laser Diffraction instrument was used to characterize the particle size distribution of ezetimibe. A Mastersizer S model equipped with a small cell dispersion unit MS1 with a digital dispersion unit controller was used. The measurement was done using range lens 300RF (working range 0.05-900 mcm), beam length: 2.40 mm and presentation 3NHE. In this case, a solution of dioctyl sulfosuccinate sodium salt in n-hexane was used as a dilution medium. The measurement was started after 1 minute of recirculation after suspension addition into measurement cell at speed rate 2000±10 rpm.
The suspension was prepared of 0.1 g sample in solution 0.065% dioctyl sulfosuccinate sodium salt in n-hexane by vortex for 10 seconds and by sonication for 30 seconds. According to the accepted rules of Good Manufacture Procedures, the sample of ezetimibe is preferably measured after a successful blank measurement (% obscuration NMT 0.1% is performed.

[9] = Specific surface area (Coulter SA3100, BET); assay type: physicochemical
Protocol: Specific surface area was measured using the following parameters:
Instrument: Coulter SA3100
(§1) Table 8 illustrates the maximum particle size and specific surface area of ezetimibe Form B before and after micronization. The maximum particle size was determined by microscope observation.

[10] = Maximum particle size by microscope observation; assay type: physicochemical
Protocol: (§2) 1 g mixture of micronized Form A and B was stored at 30° C. under 100% RH for 8 days. The mixture of Form A and Form B converted to 100% Form B after storage. Micronized Form B contained 4.1% water by weight based on Karl Fischer analysis. The micronized sample was analyzed before and after storage by XRD. The material was dispersed in light mineral oil before measurement for microscope observation. Form B was in the shape of needles and plates.
as §1

[11] = Stability of Form B in water slurry; assay type: physicochemical
Protocol: Ezetimibe Form B was stirred in soft water (25 ml) for 4 h at room temperature (heavy slurry). The mixture was filtered and washed with water (20 ml). The wet sample, after washing, was Form B. The solid was dried under vacuum at 45° C. for 18 hrs. The dry sample contained Form B (20-30% by weight) and Form A. 95% yield.

[12] = Storage of micronized Form A and B mixture at 30° C., 100% RH; assay type: physicochemical; conditions: 8 days
Protocol: as §2

[13] = 50 mm micronizer, 20 to 30 minutes

Compound: O=C1[C@H](CC[C@H](O)c2ccc(F)cc2)[C@@H](c2ccc(O)cc2)N1c1ccc(F)cc1 [Form A, 1-(4-fluorophenyl)-3(R)-[3-(4-fluorophenyl)-3(S)-hydroxypropyl]-4(S)-(4-hydroxyphenyl)-2-azetidinone]
Crystal form ([5]; RH 0%, 12 days): Form A | Water content by KF ([5]; RH 0%, 12 days): 0.2 wt % | Crystal form ([5]; RH 20%, 7 days): Form A + ˜5% B* | Water content by KF ([5]; RH 20%, 7 days): 0.2 wt % | Crystal form ([5]; RH 40%, 12 days): Form A + ˜5-10% B* | Water content by KF ([5]; RH 40%, 12 days): 0.3 wt % | Crystal form ([5]; RH 80%, 12 days): Form B | Water content by KF ([5]; RH 80%, 12 days): 4.5 wt % | Crystal form ([5]; RH 100%, 1 day): Form B | Water content by KF ([5]; RH 100%, 1 day): 4.3 wt % | Sample after pressing (crystal form) [6]: stable; also recorded: Form A + ˜5% B | crystal form after micronization [7, 13]: Form A | stability upon micronization ([7]; milling, feed air 6 bar, grinding air 5 bar): stable | heat transformation result (crystal form by XRD) ([1]; 60° C., 2 h, atmospheric oven): Form A | heat transformation result (crystal form by XRD) ([1]; 90° C., 2 h, atmospheric oven): Form A | heat transformation result (crystal form by XRD) ([1]; 110° C., 2 h, atmospheric oven): Form A | stability upon heating ([1]; even at high temperatures): stable | d (0.5) [8]: 3.18-3.33 microns | d (0.9) [8]: 7.95-8.05 microns | d(0.1) [8]: 0.39 microns

Compound: O=C1[C@H](CC[C@H](O)c2ccc(F)cc2)[C@@H](c2ccc(O)cc2)N1c1ccc(F)cc1 [Form B, 1-(4-fluorophenyl)-3(R)-[3-(4-fluorophenyl)-3(S)-hydroxypropyl]-4(S)-(4-hydroxyphenyl)-2-azetidinone]
Crystal form ([5]; RH 0%, 14 days): Form A | Water content by KF ([5]; RH 0%, 14 days): 0.1 wt % | Crystal form ([5]; RH 20%, 7 days): Form A + ˜5% B* | Water content by KF ([5]; RH 20%, 7 days): 0.2 wt % | Crystal form ([5]; RH 40%, 14 days): Form B | Water content by KF ([5]; RH 40%, 14 days): 4.0 wt % | Crystal form ([5]; RH 80%, 14 days): Form B | Water content by KF ([5]; RH 80%, 14 days): 4.3 wt % | Crystal form ([5]; RH 100%, 14 days): Form B | Water content by KF ([5]; RH 100%, 14 days): 4.4 wt % | Sample after pressing (crystal form) [6]: retains its crystalline form; also recorded: Form B | SSA ([9]; After micronization): 6.8 m^2/g | SSA ([9]; Before micronization): 3.4 m^2/g | Maximum particle size ([10]; After micronization): 20 μm | Maximum particle size ([10]; Before micronization): 400 μm | estimated water content after micronization [7, 13]: 1-2 % by weight | Form B converted to Form A during micronization ([7]; 50 mm micronizer, 20 to 30 minutes, estimated by XRD and by KF): 65% | Form B content of dry sample after water slurry ([11]; dried under vacuum at 45° C. for 18 hrs, remainder Form A): 20-30 % by weight | crystal form of wet sample after water slurry ([11]; soft water, 4 h, room temperature, filtered and washed): Form B | heat transformation result (crystal form by XRD) ([1]; 45° C., 18 h): Form A | heat transformation result (crystal form by XRD) ([1]; 60° C., 2 h, atmospheric oven): Form A | heat transformation result (crystal form by XRD) ([1]; 90° C., 2 h, atmospheric oven): Form A | heat transformation result (crystal form by XRD) ([1]; 110° C., 2 h, atmospheric oven): Form A

Further lines, with some results ahead:

heat transformation result (crystal form by XRD) ([1]; 60° C., 2 h, atmospheric oven): Amorphous Form | heat transformation result (crystal form by XRD) ([1]; 90° C., 2 h, atmospheric oven): Form A | temperature at which it transforms to Form A ([1]; heating): above 60 °C
Compound: O=C1[C@H](CC[C@H](O)c2ccc(F)cc2)[C@@H](c2ccc(O)cc2)N1c1ccc(F)cc1 [Amorphous Form, 1-(4-fluorophenyl)-3(R)-[3-(4-fluorophenyl)-3(S)-hydroxypropyl]-4(S)-(4-hydroxyphenyl)-2-azetidinone]

solubility [3]: 10 µg/mL (≈ 24.4 µM)
Compound: O=C1[C@H](CC[C@H](O)c2ccc(F)cc2)[C@@H](c2ccc(O)cc2)N1c1ccc(F)cc1 [Ezetimibe, 1-(4-fluorophenyl)-3(R)-[3-(4-fluorophenyl)-3(S)-hydroxypropyl]-4(S)-(4-hydroxyphenyl)-2-azetidinone]
solubility in ethanol, methanol, and acetone ([2]; ethanol, methanol, acetone): freely to very soluble | solubility in water ([2]; water): practically insoluble | stability at ambient temperature [4]: stable

stability in relative humidity ([5]; relative humidity of about 40% to about 100%): stable | stability upon slurrying [11]: stable | water content by Karl Fischer after storage [12]: 4.1 % by weight
Compound: O=C1[C@H](CC[C@H](O)c2ccc(F)cc2)[C@@H](c2ccc(O)cc2)N1c1ccc(F)cc1 [Micronized Form B]

Form B content after storage [12]: 100%
Compound: O=C1[C@H](CC[C@H](O)c2ccc(F)cc2)[C@@H](c2ccc(O)cc2)N1c1ccc(F)cc1 [mixture of micronized Form A and B]
